These results are taken from the NIST ThermoML archive (doi:10.1016/j.jct.2006.03.004).

± gives the expanded uncertainty stated by the source.

What is called vapor or sublimation pressure is the equilibrium pressure above the liquid or solid.

For this series the following is noted: Liquid.

As to `FCC(F)(F)F` [1,1,1,2-tetrafluoroethane], the “vapor or sublimation pressure” value is, setting by setting: (282.55 K) 404 ± 2.7 kPa; (293.32 K) 572.6 ± 3.7 kPa; (303.24 K) 773.3 ± 5 kPa; (312.66 K) 1002.2 ± 6.5 kPa; (322.82 K) 1304.9 ± 8.3 kPa.
